Reference: patent US20210244686A1, “Novel Systems And Methods For The Therapeutic Use of Cannabinoids or Cannabinoid Analogs to Increase The Lipid Order of Cholesterol Containing Cell Membranes” (The Regents of the University of Colorado a body corporate, priority 2018, published 2021)

How the values were obtained:
SK-N-BE(2) cells [1] = assay: Live cell confocal microscopy of lipid droplets (NBD-cholesterol, nile red); assay type: cell-based, human; conditions: CBD 20 μM, 24 hrs
Excerpt: Thus, the present inventors found multiple lines of evidence consistent with activation of cholesterol esterification in the CBD response. To further support the claim that CBD elicits cholesterol storage, the present inventors used live cell confocal microscopy of SK-N-BE(2) cells stained with both fluorescent cholesterol (22-NBD-Cholesterol) and the lipid droplet dye nile red (FIG. 4E) to quantify the number and size of lipid droplets. […] Altogether, these combined experiments highlight that the CBD response in cells includes activation of cholesterol esterification and storage.
(§1) SK-N-BE(2) cells were seeded into fibronectin coated glass bottom 96 well plates (Matriplate) at a cell density of 40,000 cells/well using low background imaging media (FluoroBrite DMEM with all supplements described, above). At the time of seeding, nile red (ThermoFisher) was added at a final concentration of 100 ng/mL and NBD-cholesterol (ThermoFisher) was added at a final concentration of 10 μg/mL. […] Lipid droplets and their sizes were detected and quantified using the ImageJ Find Particles Function, and data was subsequently processed using Microsoft Excel. Error depicted represents the standard deviation calculated from three biological replicates. […]

HaCaT cells = assay: Live cell microscopy apoptosis assay (caspase 3/7 dye); conditions: increasing 25-hydroxy cholesterol, constant CBD
Procedure: (§2) To accurately measure cellular apoptosis over time, the present inventors performed live cell microscopy experiments with cells loaded with both DNA and caspase 3/7 dyes, which enables continuous and precise quantification of apoptosis at the single cell level.
(§3) Cell viability for SK-N-BE(2) cells was conducted using a fluorometric cell viability assay using Resazurin (PromoKine) according to the manufacturer's instructions. […] Dyes were added at the time of seeding, 18-24 hours prior to performing experiments.
(§4) Experiments were performed using an ImageXpress MicroXL microscope and a 10× objective, where images were acquired for each well at the indicated time-points using DAPI and FITC filter sets. […] Percent apoptotic cells was calculated from the sum of apoptotic cell pixels divided by the sum of all cell pixels for each field of view.

SK-N-BE(2) cells [2] = assay: as above
Procedure: as §2, §3, §4

[3] = system: SKNBE2 neuroblastoma cells; assay: Flow cytometric analysis of rhodamine-glibenclamide staining in live cells; assay type: cell-based, human
SK-N-BE(2) cells [4] = assay: cells; assay type: cell-based, human
Procedure: To efficiently design the multi-omics experiments, the present inventors exposed the neuroblastoma cell line SK-N-BE(2) to escalating doses of CBD at 24, 48, and 72 hours and determined the EC50 of toxicity of CBD to be greatest at 72 hours and at an approximate concentration of 20 μM (FIG. 1 B). To maximize the efficient use of the inventor's multi-omic resources, a large dose and time survey of the CBD response was conducted in a panel of transgenic SK-N-BE(2) and HaCaT keratinocyte cell lines, each expressing a genetically encoded förster resonance energy transfer (FRET) biosensor gene capable of reporting the activity of a cellular effector molecule/activity including, but not limited to: AMP kinase activity, Erk kinase activity, cytosolic ATP, glucose, lactate, pyruvate & glutamine, Ca^2+ in the ER & Cytosol, mTor kinase activity & TACE protease activity. […] The biosensor activity profiles as a function of CBD dose and time (FIGS. 9A-C) were analyzed for the EC50 of each biosensor activity at each time (FIG. 10). The result of these efforts outlined that the most robust dose of CBD for use in multi-omic experiments is 20 μM and that the kinetic profile of the CBD response begins in hours and persists for days.

SK-N-BE(2) cells [5] = assay: Live cell confocal microscopy of NBD-cholesterol and lysotracker; assay type: cell-based, human; conditions: after 24 hours, only with NPC1 inhibitor U18666A and CBD 20 μM
Excerpt: One possible explanation for why CBD sensitizes cells to inhibitors of cholesterol trafficking and storage is that CBD increases the flux of cholesterol from the plasma membrane to the lysosome-ER transport pathway. When this flux is activated and hydroxy cholesterol is supplied in excess, the inability to efficiently store cholesterol may cause subcellular accumulation of cholesterol/hydroxycholesterol in organelles that normally maintain low cholesterol levels. To test this hypothesis, the inventor's repeated the live cell confocal microscopy experiments with SK-N-BE(2) cells stained with fluorescent cholesterol (NBD-cholesterol) and the lysosome dye lysotracker.
as §1

HEK293T cells = assay: Live cell microscopy apoptosis assay (caspase 3/7 dye); assay type: cell-based; conditions: DHA 75 μM with MBCD 300 μM or CBD 6.25 μM
Procedure: In order to gain further insight into the sensitivity of CBD treated cells to 25-hydroxy cholesterol, the present inventors repeated the apoptosis assay in SK-N-BE(2) and HEK293T cells with combinatorial 25-hydroxy cholesterol/CBD stimulation using sublethal doses of 25-hydroxy cholesterol (15 μg/ml) and CBD (20 μM) in the presence or absence of either the chemical inhibitor of cholesterol transport (U18666A, 10 μM) or cholesterol storage (VULM 1457, 5 μM).
FRAP experiments reveal that DHA and CBD have opposing effects on the lateral diffusion of fluorescently labelled cholesterol in synthetic membranes. Although this implies that CBD increases lipid order and that DHA decreases lipid order, it remains unclear how relevant these biophysical effects of CBD and DHA are to cellular physiology. As a result, the present inventors sought to determine whether CBD and DHA have opposing effects on cells. To this end, the present inventors repeated the live cell apoptosis assays in cells exposed to increasing doses of DHA to determine how DHA affects cell death.

C=C(C)[C@@H]1CCC(C)=C[C@H]1c1c(O)cc(CCCCC)cc1O [CBD, cannabidiol]
average abundance of lipid droplets (SK-N-BE(2) cells [1]): increases | lipid droplet size (SK-N-BE(2) cells [1]): does not affect | sensitivity of CBD exposed cells to 25-hydroxy cholesterol induced apoptosis, relative to SK-N-BE(2) (HaCaT cells): more dramatically observed | effect on DHA induced apoptosis (SK-N-BE(2) cells [2]; DHA 75 μM with MBCD 300 μM or CBD 6.25 μM): completely cancel the apoptotic effects | sensitivity of CBD exposed cells to 25-hydroxy cholesterol induced apoptosis (SK-N-BE(2) cells [2]; increasing 25-hydroxy cholesterol, constant CBD): clear dose dependent sensitivity | cellular response similar to cholesterol drugs Atorvastatin and Ezetimibe ([3]; SKNBE2 neuroblastoma cells): low cholesterol response | rhodamine-glibenclamide fluorescence ([3]; live cells, flow cytometry): Enhanced fluorescence | EC50 (SK-N-BE(2) cells [4]; Homo sapiens, SKNBE2, SK-N-BE(2), greatest at 72 hours, approximate, read-out: EC50 of toxicity): ~20 µM | doses that can induce cell death (SK-N-BE(2) cells [4]; after 24 hours): > 40 µM | fluorescent cholesterol in lysosomes (SK-N-BE(2) cells [5]): accumulates in labeled lysosomes | effect on DHA induced apoptosis (HEK293T cells): completely cancel the apoptotic effects
